Measurements published in PubChem BioAssay (NCI).
Values joined by “and” are separate entries in the source; they are usually repeats but may differ in a detail not shown here. Equal values may be shown once.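 Where inhibition never reached the appropriate level, the endpoint shown equals the highest concentration tested. Otherwise, values were interpolated linearly from a five-concentration, 48-hour dose response in 96-well plates. GI50 marks 50% less growth. Definition used: TGI = concentration required for complete inhibition of growth.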

Key:
Test in all cases: DTP human tumour cell line panel, 48 h
DLD-1 colon = system: DLD-1 colon
EKVX NSCLC = system: EKVX NSCLC
IGROV1 ovarian = system: IGROV1 ovarian
NCI-H226 lung = system: NCI-H226 lung
OVCAR-3 ovarian = system: OVCAR-3 ovarian
RPMI-8226 leukemia = system: RPMI-8226 leukemia
SNB-19 CNS = system: SNB-19 CNS
MCF7 breast = system: MCF7 breast
MDA-MB-231 breast = system: MDA-MB-231 breast
DMS 273 small cell lung = system: DMS 273 small cell lung

Row | Structure (SMILES) | TGI (DLD-1 colon) [µM] | TGI (EKVX NSCLC) | TGI (IGROV1 ovarian) | TGI (NCI-H226 lung) | TGI (OVCAR-3 ovarian) | TGI (RPMI-8226 leukemia) | TGI (SNB-19 CNS) | GI50 (EKVX NSCLC) | GI50 (IGROV1 ovarian) | GI50 (MCF7 breast) | TGI (MCF7 breast) | GI50 (MDA-MB-231 breast) | TGI (MDA-MB-231 breast) | GI50 (NCI-H226 lung) | GI50 (OVCAR-3 ovarian) | GI50 (RPMI-8226 leukemia) | GI50 (SNB-19 CNS) | TGI (DMS 273 small cell lung) [µM]
1 | COc1cc2c(cc1O)CC13CCC(=O)N1CCc1cc(OC)c(O)c-2c13 (configuration not stated) | > 68.1 | > 68.1 µM | > 68.1 µM | > 68.1 µM | > 68.1 µM | > 68.1 µM | > 68.1 µM | – | – | – | – | – | – | – | – | – | – | –
2 | COc1ccccc1C#Cc1ccccc1C#CCCCCCC#Cc1ccccc1C#Cc1ccccc1OC | – | > 100 µM | > 100 µM | > 100 µM | > 100 µM | > 100 µM | > 100 µM | > 100 µM | 77.7 µM | 17.3 µM | > 100 µM | 60.3 µM | > 100 µM | > 100 µM | 93.5 µM | 29 µM | > 100 µM | –
3 | Cn1cc(-c2cnc3ccc4ccc(CS(=O)(=O)NCc5ccccn5)cc4c(=O)c3c2)cn1 | – | > 100 µM | > 100 µM | 36 µM | 45.8 µM | > 75.2 µM | > 100 µM | 44.9 µM | 22.1 µM | 7.7 µM | > 100 µM | 19.6 µM | > 68.4 µM | 14.8 µM | 14.6 µM | 11.6 µM | 26.6 µM | –
4 | NS(=O)(=O)c1cccc(N=Cc2c(O)[nH]c3ccccc23)c1 | – | > 25 µM | > 25 µM | > 25 µM | > 25 µM | > 25 µM | > 25 µM | > 25 µM | > 20.2 µM | > 25 µM | > 25 µM | > 25 µM | > 25 µM | > 25 µM | > 25 µM | > 25 µM | > 25 µM | –
5 | c1ccc(-n2nnnc2-c2cccc3ccccc23)cc1 | – | > 100 µM | > 100 µM | > 100 µM | 0.627 µM | 45.7 µM | > 100 µM | 2.42 µM | 1.56 µM | 0.562 µM | > 100 µM | 1.34 µM | 28.8 µM | 15.5 µM | 0.257 µM | 0.579 µM | 0.859 µM | –
6 | CC#CC1/C(=C\C(=O)OC)CCCC1O (configuration not stated) | > 100 | > 100 µM | – | > 100 µM | > 100 µM | – | > 100 µM | – | – | – | – | – | – | – | – | – | – | > 100
7 | Cc1cc(Cc2cc(C)cc(C(C)(C)C)c2O)c(O)c(C(C)(C)C)c1 | – | 12.1 µM | 16.5 µM | 30 µM | 13.1 µM | 57.2 µM | 25.8 µM | 2.81 µM | 5.24 µM | 3.47 µM | 12.7 µM | 9.83 µM | 21.7 µM | 14.2 µM | 3.97 µM | 7.55 µM | 13.1 µM | –
8 | CC1=CCC23C(C1)OC(Br)(C=CC2(C)O)C3(C)C (configuration not stated) | > 100 | > 100 µM | > 100 µM | > 100 µM | – | – | – | – | – | – | – | – | – | – | – | – | – | > 100
9 | Cc1cc(Nc2ncnc3ccc(NC4=NC(C)(C)CO4)cc23)ccc1Oc1ccn2ncnc2c1 | – | > 10 µM | > 100 µM | > 90.2 µM | 52.6 µM and > 10 µM | 33.5 µM and > 10 µM | > 100 µM | 5.02 µM | 12.5 µM and > 10 µM | 13.7 µM and > 10 µM | 31.5 µM and > 10 µM | 14.1 µM and > 10 µM | 44.9 µM and > 10 µM | 16.6 µM and > 10 µM | 14.4 µM and > 10 µM | 9.87 µM and 6.82 µM | 21.9 µM and > 10 µM | –
10 | COc1ccc(Cl)cc1NC(=O)C(Br)C(Br)C(=O)O (configuration not stated) | – | > 100 µM | > 73.5 µM | 35.9 µM | 6.81 µM | > 91.7 µM | > 68.7 µM | 21.9 µM | 33.2 µM | 3.23 µM | > 47.9 µM | 9.23 µM | 26 µM | 13.7 µM | 2.63 µM | 17.7 µM | 27.9 µM | –
11 | O=C(O)c1ccc(N/C=C2\C(=O)c3ccccc3OC2O)cc1O (configuration not stated) | – | 82.5 µg/mL | 47.3 µg/mL | > 150 µg/mL | 41.9 µg/mL | 8.67 µg/mL | 72.4 µg/mL | 23.9 µg/mL | 12.8 µg/mL | 12.6 µg/mL | 81.8 µg/mL | 22 µg/mL | 54.6 µg/mL | 46.5 µg/mL | 8.41 µg/mL | 2.45 µg/mL | 18.4 µg/mL | –
12 | CC(=O)O/N=C1/C(c2c(O)[nH]c3cc(Br)ccc23)=Nc2ccccc21 | – | 2.95 µM | 3.33 µM | 4.74 µM | 2.14 µM | 5.27 µM | 11.1 µM | 1.37 µM | 1.27 µM | 1.93 µM | 5.98 µM | 1.53 µM | 3.77 µM | 1.45 µM | 0.771 µM | 2.03 µM | 4.26 µM | –
13 | c1ccc2c(c1)[nH]c1cnc3c4cccnc4[nH]c3c12 | 33.5 | 39 µM | 40.1 µM | 64 µM | 32.2 µM | 58.5 µM | 37.3 µM | – | – | – | – | – | – | – | – | – | – | –
14 | Cc1ccc(-c2cc(C3=CC(=O)C=CC3=O)n(-c3ccc(S(N)(=O)=O)cc3)n2)cc1 | – | > 100 µM | > 100 µM | > 100 µM | > 100 µM | 70.2 µM | > 100 µM | 47.8 µM | > 100 µM | 53.1 µM | > 100 µM | 20.6 µM | 72.8 µM | 54 µM | 44.5 µM | 6.17 µM | 63.7 µM | –
15 | C=CCC(N[C@H](CO)c1ccccc1)c1cn(C(=O)OCC)c2ccccc12 (some centres not stated) | – | 37.3 µM | 26.3 µM | 31 µM | 25 µM | > 100 µM | 66.9 µM | 17.5 µM | 8.46 µM | 35.2 µM | > 100 µM | 15.7 µM | 31.3 µM | 15.2 µM | 11.6 µM | 70.2 µM | 22.3 µM | –
16 | Cc1cc(C)c(O)c(CN(C)Cc2cc(Cl)cc(Cl)c2O)c1 | – | 30.7 µM | 8.85 µM | 23.1 µM | 8.16 µM | 23.2 µM | 20.8 µM | 4.52 µM | 2.2 µM | 3.28 µM | 14.3 µM | 2.97 µM | 12.8 µM | 6.56 µM | 2.4 µM | 3.12 µM | 4.82 µM | –
